Counter-ions that a name gives are not always drawn.
Tests used:
human TLR7 = molecular target: T1, human TLR7 (Homo sapiens, UniProt Q9NYK1); experiment: HEK-Blue hTLR7 reporter cell assay (SEAP, NF-kB/AP-1) for stimulation of human TLR7; type: cell-based; conditions: HEK-Blue hTLR7 cells; for EC50: 24 h incubation, SEAP readout, read-out: TLR7_EC50; for activation at 20 µM: 24 h, at 20000 nM
T1 construct: host or cells: HEK293 (HEK-Blue hTLR7)
T1 sequence (Q9NYK1 27-1049): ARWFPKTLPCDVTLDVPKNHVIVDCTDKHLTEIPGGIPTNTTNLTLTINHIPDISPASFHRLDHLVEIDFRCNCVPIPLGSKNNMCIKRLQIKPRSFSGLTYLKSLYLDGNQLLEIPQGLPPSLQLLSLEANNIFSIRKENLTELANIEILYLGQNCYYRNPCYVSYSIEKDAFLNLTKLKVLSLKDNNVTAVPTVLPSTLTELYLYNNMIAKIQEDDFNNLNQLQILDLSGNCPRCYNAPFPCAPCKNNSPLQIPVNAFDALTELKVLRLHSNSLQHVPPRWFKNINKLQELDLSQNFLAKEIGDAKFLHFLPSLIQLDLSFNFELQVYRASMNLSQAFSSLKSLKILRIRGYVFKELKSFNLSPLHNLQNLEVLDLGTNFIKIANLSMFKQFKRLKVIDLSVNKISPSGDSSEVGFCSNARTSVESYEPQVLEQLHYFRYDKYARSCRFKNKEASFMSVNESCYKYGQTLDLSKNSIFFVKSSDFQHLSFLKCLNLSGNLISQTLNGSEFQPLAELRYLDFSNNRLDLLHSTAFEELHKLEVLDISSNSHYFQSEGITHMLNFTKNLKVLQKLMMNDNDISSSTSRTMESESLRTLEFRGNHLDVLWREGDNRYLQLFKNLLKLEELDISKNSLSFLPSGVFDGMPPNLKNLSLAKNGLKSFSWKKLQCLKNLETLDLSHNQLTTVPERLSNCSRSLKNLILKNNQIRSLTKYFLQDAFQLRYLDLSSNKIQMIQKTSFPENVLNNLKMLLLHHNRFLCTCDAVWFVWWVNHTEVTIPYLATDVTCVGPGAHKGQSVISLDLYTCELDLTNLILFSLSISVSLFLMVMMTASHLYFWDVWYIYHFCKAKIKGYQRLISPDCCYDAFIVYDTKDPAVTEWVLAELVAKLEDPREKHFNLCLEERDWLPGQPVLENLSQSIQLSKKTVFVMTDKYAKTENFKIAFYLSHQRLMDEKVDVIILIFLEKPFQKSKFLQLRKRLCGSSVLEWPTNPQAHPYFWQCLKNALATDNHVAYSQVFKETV
How it was run: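 HEK293 cells expressing hTLR7 with NF-κB/AP-1-driven SEAP reporter, seeded 3.10E4 cells/well, pre-incubated 18–24 h, then exposed to 3-fold compound dilutions (0.01–20 μM) for 24 h at 37 °C. Supernatant SEAP read with QUANTI-Blue; EC50 as concentration giving 50% activation.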

human TLR8 = molecular target: T2, human TLR8 (Homo sapiens, UniProt Q9NR97); experiment: HEK-Blue hTLR8 reporter cell assay (SEAP, NF-kB/AP-1) for stimulation of human TLR8; type: cell-based; conditions: HEK-Blue hTLR8 cells; for EC50: 24 h incubation, SEAP readout, read-out: TLR8_EC50; for activation at 20 µM: 24 h, at 20000 nM
T2 construct: host or cells: HEK293 (HEK-Blue hTLR8)
T2 sequence (Q9NR97 27-1041): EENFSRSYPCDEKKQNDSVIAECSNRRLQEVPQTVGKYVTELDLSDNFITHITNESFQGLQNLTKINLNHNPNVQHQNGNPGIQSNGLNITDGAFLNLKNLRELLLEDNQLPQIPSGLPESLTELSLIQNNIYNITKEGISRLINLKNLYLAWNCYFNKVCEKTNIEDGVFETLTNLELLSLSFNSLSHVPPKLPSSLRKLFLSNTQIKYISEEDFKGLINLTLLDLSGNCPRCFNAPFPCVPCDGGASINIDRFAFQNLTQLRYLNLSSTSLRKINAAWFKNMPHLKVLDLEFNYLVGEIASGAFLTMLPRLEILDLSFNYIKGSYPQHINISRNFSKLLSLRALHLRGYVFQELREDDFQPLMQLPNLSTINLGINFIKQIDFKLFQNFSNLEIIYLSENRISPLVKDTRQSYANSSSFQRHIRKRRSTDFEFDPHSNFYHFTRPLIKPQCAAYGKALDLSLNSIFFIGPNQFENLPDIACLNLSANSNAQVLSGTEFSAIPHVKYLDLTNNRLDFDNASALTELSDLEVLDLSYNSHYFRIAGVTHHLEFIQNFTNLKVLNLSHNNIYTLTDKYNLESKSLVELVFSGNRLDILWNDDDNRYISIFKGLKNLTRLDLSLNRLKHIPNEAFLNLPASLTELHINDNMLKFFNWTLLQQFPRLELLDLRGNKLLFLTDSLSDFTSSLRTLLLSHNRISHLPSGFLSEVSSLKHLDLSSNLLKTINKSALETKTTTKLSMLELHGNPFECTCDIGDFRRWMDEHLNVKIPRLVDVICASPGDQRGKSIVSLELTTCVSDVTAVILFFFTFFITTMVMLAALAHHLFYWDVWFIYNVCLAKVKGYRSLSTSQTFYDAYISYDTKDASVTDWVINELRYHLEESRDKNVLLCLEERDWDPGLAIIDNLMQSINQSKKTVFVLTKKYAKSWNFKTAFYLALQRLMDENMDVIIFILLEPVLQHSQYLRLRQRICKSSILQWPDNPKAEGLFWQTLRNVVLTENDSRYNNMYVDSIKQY
How it was run: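 HEK293 cells carrying hTLR8 and a SEAP reporter driven by NF-κB/AP-1 sites were seeded at 3.10E4 cells/well and held 18 to 24 h at 37° C., 5% CO2 before compound addition. Supernatant SEAP measured with QUANTI-Blue™.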

EC50 (human TLR7) [µM]	EC50 (human TLR8) [µM]	activation at 20 µM (human TLR7) [%]	activation at 20 µM (human TLR8) [%]	Compound
7.74	> 20	–	–	CCCCc1nc2c(N)nnc(OC(C)C)c2n1CCC1CCNCC1 [Compound 78, 2-butyl-7-isopropoxy-1-(2-(piperidin-4-yl)ethyl)-1H-imidazo[4,5-d]pyridazin-4-amine]
9.71	> 20	–	–	CCCCc1nc2c(N)nnc(OC(C)C)c2n1CCN1CCNCC1 [Compound 79, 2-butyl-7-isopropoxy-1-(2-(piperazin-1-yl)ethyl)-1H-imidazo[4,5-d]pyridazin-4-amine]
0.169	> 20	–	–	CCCCc1nc2c(N)nnc(OC(C)C)c2n1Cc1ccccc1 [Compound 80, 1-benzyl-2-butyl-7-isopropoxy-1H-imidazo[4,5-d]pyridazin-4-amine hydrochloride]
0.117	> 20	–	–	CCCCc1nc2c(N)nnc(OC(C)C)c2n1CC1CCCCC1 [Compound 81, 2-butyl-1-(cyclohexylmethyl)-7-isopropoxy-1H-imidazo[4,5-d]pyridazin-4-amine hydrochloride]
4.4	6.96	–	–	CCCCc1nc2c(N)nnc(OC(C)C)c2n1C [Compound 86, 2-butyl-7-isopropoxy-1-methyl-1H-imidazo[4,5-d]pyridazin-4-amine]
8.52	> 20	–	–	CCCCc1nc2c(N)nnc(NCc3ccc(CN)cc3)c2n1C [Compound 87, N7-(4-(aminomethyl)benzyl)-2-butyl-1-methyl-1H-imidazo[4,5-d]pyridazine-4,7-diamine]
2.98	13.6	–	–	CCCCc1nc2c(N)nnc(NC(C)C)c2n1C [Compound 88, 2-butyl-N7-isopropyl-1-methyl-1H-imidazo[4,5-d]pyridazine-4,7-diamine]
–	–	8	6	CCCCc1nc2c(N)nnc(NC(C)C)c2[nH]1 [Compound 98, 2-butyl-N7-isopropyl-1H-imidazo[4,5-d]pyridazine-4,7-diamine]
13.6	–	–	18	CCCCc1nc2c(N)nnc(SC(C)C)c2[nH]1 [Compound 99, 2-butyl-7-(isopropylthio)-1H-imidazo[4,5-d]pyridazin-4-amine]

Further lines, the molecule ahead of its results:

Compound	EC50 (human TLR7) [µM]	EC50 (human TLR8) [µM]	activation at 20 µM (human TLR7) [%]	activation at 20 µM (human TLR8) [%]
CCCCc1nc2c(N)nnc(OC(C)C)c2n1Cc1ccc(CNC2CCOCC2)cc1 [Compound 82, 2-butyl-7-isopropoxy-1-(4-(((tetrahydro-2H-pyran-4-yl)amino)methyl)benzyl)-1H-imidazo[4,5-d]pyridazin-4-amine hydrochloride]	0.013	0.303	–	–
CCCCc1nc2c(N)nnc(OC(C)C)c2n1Cc1ccc(CNC(C)C)cc1 [Compound 83, 2-butyl-7-isopropoxy-1-(4-((isopropylamino)methyl)benzyl)-1H-imidazo[4,5-d]pyridazin-4-amine dihydrochloride]	0.008	0.637	–	–
CCCCCCC(=O)NCc1ccc(Cn2c(CCCC)nc3c(N)nnc(OC(C)C)c32)cc1 [Compound 84, N-(4-((4-amino-2-butyl-7-isopropoxy-1H-imidazo[4,5-d]pyridazin-1-yl)methyl)benzyl)heptanamide]	0.263	1.81	–	–
CCCCc1nc2c(N)nnc(N3CCC(c4ccc(CO)cc4)C3)c2n1C (stereo not drawn) [Compound 85, (4-(1-(4-amino-2-butyl-1-methyl-1H-imidazo[4,5-d]pyridazin-7-yl)pyrrolidin-3-yl)phenyl)methanol hydrochloride]	0.606	3.1	–	–
CCCCc1nc2c(N)nnc(N(C)Cc3ccccc3)c2n1C [Compound 90, N7-benzyl-2-butyl-N7,1-dimethyl-1H-imidazo[4,5-d]pyridazine-4,7-diamine]	10.6	12.7	–	–
CCCCc1nc2c(N)nnc(NCc3ccc(CN4CCN(C)CC4)cc3)c2n1C [Compound 91, 2-butyl-1-methyl-N7-(4-((4-methylpiperazin-1-yl)methyl)benzyl)-1H-imidazo[4,5-d]pyridazine-4,7-diamine]	–	–	45	10
CCCCc1nc2c(N)nnc(-c3ccccc3)c2n1Cc1ccc(OC)cc1 [Compound 92, 2-butyl-1-(4-methoxybenzyl)-7-phenyl-1H-imidazo[4,5-d]pyridazin-4-amine]	7.97	–	–	15
CCCCc1nc2c(N)nnc(O)c2n1Cc1ccc(OC)cc1 [Compound 93, 4-amino-2-butyl-1-(4-methoxybenzyl)-1H-imidazo[4,5-d]pyridazin-7-ol]	> 20	–	–	17
CCCCc1nc2c(N)nnc(NCCCc3ccco3)c2n1Cc1ccc(OC)cc1 [Compound 94, 2-butyl-N7-(3-(furan-2-yl)propyl)-1-(4-methoxybenzyl)-1H-imidazo[4,5-d]pyridazine-4,7-diamine]	0.226	–	–	11
CCCCc1nc2c(N)nncc2n1Cc1ccc(OC)cc1 [Compound 95, 2-butyl-1-(4-methoxybenzyl)-1H-imidazo[4,5-d]pyridazin-4-amine]	–	–	15	20.5
CCCCc1nc2c(N)nnc(-c3cc[nH]n3)c2n1Cc1ccc(OC)cc1 [Compound 96, 2-butyl-1-(4-methoxybenzyl)-7-(1H-pyrazol-3-yl)-1H-imidazo[4,5-d]pyridazin-4-amine]	> 20	–	–	22.7
CCCCc1nc2c(N)nnc(-c3cnn(C)c3)c2n1Cc1ccc(OC)cc1 [Compound 97, 2-butyl-1-(4-methoxybenzyl)-7-(1-methyl-1H-pyrazol-4-yl)-1H-imidazo[4,5-d]pyridazin-4-amine]	–	> 20	13	–
CCCCc1nc2c(N)nnc(OC(C)C)c2n1Cc1ccc(CN[C@H]2C[C@H](O)C2)cc1 [Compound 100, (1R,3R)-3-((4-((4-amino-2-butyl-7-isopropoxy-1H-imidazo[4,5-d]pyridazin-1-yl)methyl)benzyl)amino)cyclobutan-1-ol dihydrochloride salt]	0.036	2.17	–	–
CCCCc1nc2c(N)nnc(OC(C)C)c2n1Cc1ccc(CN2CCCC2)cc1 [Compound 101, 2-butyl-7-isopropoxy-1-(4-(pyrrolidin-1-ylmethyl)benzyl)-1H-imidazo[4,5-d]pyridazin-4-amine]	0.013	0.355	–	–
CCCCc1nc2c(N)nnc(OC(C)C)c2n1Cc1ccc(CN2CCOCC2)cc1 [Compound 102, 2-butyl-7-isopropoxy-1-(4-(morpholinomethyl)benzyl)-1H-imidazo[4,5-d]pyridazin-4-amine]	0.071	3.83	–	–
